Source: patent US20110098322A1, “PREPARATION OF NOVEL 1,3-S[…] AS INHIBITORS OF SOLUBLE EPOXIDE HYDROLASE” (priority 2007, published 2011)

Biological target: T1, Recombinant human sEH (Homo sapiens, UniProt P34913)
T1 construct: made in house
T1 sequence (P34913 1-555): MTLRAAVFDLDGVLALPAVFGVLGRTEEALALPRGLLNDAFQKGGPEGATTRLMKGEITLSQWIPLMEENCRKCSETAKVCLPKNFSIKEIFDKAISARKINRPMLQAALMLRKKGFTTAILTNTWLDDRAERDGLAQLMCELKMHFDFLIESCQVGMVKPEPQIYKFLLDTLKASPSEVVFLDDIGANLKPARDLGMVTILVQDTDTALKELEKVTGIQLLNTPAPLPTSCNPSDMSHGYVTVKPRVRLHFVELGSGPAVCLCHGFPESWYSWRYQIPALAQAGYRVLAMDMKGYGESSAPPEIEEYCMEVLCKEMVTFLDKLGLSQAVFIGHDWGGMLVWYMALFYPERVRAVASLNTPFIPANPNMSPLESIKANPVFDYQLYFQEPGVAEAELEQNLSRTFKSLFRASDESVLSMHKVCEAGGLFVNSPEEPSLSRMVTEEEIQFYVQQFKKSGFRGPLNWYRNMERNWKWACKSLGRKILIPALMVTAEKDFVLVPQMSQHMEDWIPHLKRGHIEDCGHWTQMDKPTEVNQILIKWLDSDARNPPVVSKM
Test: Inhibition of human soluble epoxide hydrolase (IC50 assay)
Assay type: biochemical
Source text: This example provides assays and illustrates the inhibition of human soluble epoxide hydrolases by compounds of the invention.
Recombinant human sEH was produced in a baculovirus expression system and purified by affinity chromatography. The preparations were at least 97% pure as judged by SDS-PAGE and scanning densitometry. No detectable esterase or glutathione transferase activity, which can interfere with this sEH assay, was observed. Protein concentration was quantified by using the Pierce BCA assay using Fraction V bovine serum albumin as the calibrating standard.
IC50 values were determined in one of three methods. One method uses racemic 4-nitrophenyl-trans-2,3-epoxy-3-phenylpropyl carbonate as substrate. Enzyme (0.24 μM human sEH) was incubated with inhibitors for 5 min in sodium phosphate buffer, 0.1 M pH 7.4, at 30° C. before substrate introduction([S]=40 μM). Activity was assessed by measuring the appearance of the 4-nitrophenolate anion at 405 nm at 30° C. during 1 min (Spectramax 200; Molecular Devices). Assays were performed in triplicate. 1050 is a concentration of inhibitor, which reduces enzyme activity by 50%, and was determined by regression of at least five datum points with a minimum of two points in the linear region of the curve on either side of the IC50. The curve was generated from at least three separate runs, each in triplicate.
Other IC50 values were determined using the procedure described in Analytical
Biochemistry 343 66-75 (2005) using cyano(6-methoxy-naphthalen-2-yl)methyl trans-[(3-phenyloxiran-2-yl)methyl]carbonate as a substrate. Enzymes (0.96 nM for human sEH) were incubated with inhibitors ([I]=0.5-10,000 nM) for 5 min in BisTris-HCl buffer (25 mM, pH 7.0, containing 0.1 mg/ml of BSA) at 30° C. prior to substrate introduction ([S]=5 µM). Enzyme activity was measured by monitoring the appearance of 6-methoxy-2-naphthaldehyde. Assays were performed in triplicate. By definition, IC50 values are concentrations of inhibitor that reduce enzyme activity by 50%. IC50 values were determined by regression of at least five datum points, with a minimum of two datum points in the linear region of the curve on either side of the IC50 values. The curve was generated from at least three separate runs, each in triplicate.
Other inhibition potencies were determined using a fluorescent based high-throughput assay. Inhibitors in solution at 10 mM in DMSO were serially diluted by 10-fold increment in Bis/Tris HCl buffer (25 mM pH 7.0) containing 0.1 mg/mL of BSA (Buffer A). In black 96-well plates, 20 µL of the inhibitor dilution or buffer were delivered in every well, and then 130 μL of Human sEH at ˜0.4 μg/mL in solution in Buffer A were added to each well. The plate was then mixed and incubated at room temperature for 5 minutes. Fifty microliters of substrate ((3-Phenyl-oxiranyl)-acetic acid cyano-(6-methoxy-naphthalen-2-yl)-methyl ester; PHOME) at 200 μM in solution in 96:4 Buffer A:DMSO was then added to each well to give [S]final=50 μM and [E]final=˜4 nM. The plate was then mixed and incubated in the dark at room temperature (˜25° C.) for 90 min. Activity was measured by determining the relative quantity of 6-methoxy-2-naphthaldehyde formed with an excitation wavelength of 316 nm and an emission wavelength of 460 nm measured with a SpectraMax M-2 fluorometer (molecular Devices, Sunnyvale, Calif.).
Assays were conducted with the compounds indicated in the table below, as described above.

Row | SMILES | IC50 [nM]
1 | CC(C)c1cccc(C(C)(C)NC(=O)NC2CCN(S(C)(=O)=O)CC2)c1 [Compound 2048] | 97.6
2 | C=C(C)c1cccc(C(C)(C)NC(=O)Nc2cccc(C(=O)O)c2)c1 [Compound 1718] | 7920
3 | CC(C)c1cccc(C(C)(C)NC(=O)NC2CCC(O)CC2)c1 (stereo not drawn) [Compound 1892] | 393
4 | CC(C)c1cccc(C(C)(C)NC(=O)NC2CCC(C(=O)O)CC2)c1 (stereo not drawn) [Compound 1852] | 555
5 | CC(C)c1cccc(C(C)(C)NC(=O)NC2CCCCC2)c1 [Compound 1713, 1-cyclohexyl-3-(2-(3-isopropylphenyl)propan-2-yl)urea] | 7.5
6 | C=C(C)c1cccc(C(C)(C)NC(=O)Nc2cccc(C(=O)OCC)c2)c1 [Compound 1716] | 41.3
7 | CC(C)c1cccc(C(C)(C)NC(=O)NCC2CCN(C(=O)OC(C)(C)C)CC2)c1 [Compound 1806] | 5.6
8 | CCOC(=O)c1cccc(NC(=O)NC(C)(C)c2cccc(C(C)C)c2)c1 [Compound 1717] | 158
9 | CC(C)c1cccc(C(C)(C)NC(=O)N[C@H]2CC[C@H](Oc3ccc(C#N)cc3)CC2)c1 [Compound 1908, trans-1-[4-(4-Cyano-phenoxy)-cyclohexyl]-3-[1-(3-isopropyl-phenyl)-1-methyl-ethyl]-urea] | 9.8
10 | CC(C)c1cccc(C(C)(C)NC(=O)NCCCCc2ccccc2)c1 [Compound 1805] | 11.5
11 | CC(C)c1cccc(C(C)(C)NC(=O)NCCc2ccc(C(=O)O)cc2)c1 [Compound 1807] | 2890
12 | CC(C)c1cccc(C(C)(C)NC(=O)N[C@H]2CC[C@H](Oc3ccc(C(=O)O)cc3)CC2)c1 [Compound 1956] | 3.9
13 | CC(C)c1cccc(C(C)(C)NC(=O)NC2CCN(C(=O)OC(C)(C)C)CC2)c1 [Compound 1868] | 21.6
14 | C=C(C)c1cccc(C(C)(C)NC(=O)NCCCCCCCCCCCC)c1 [Compound 1714] | 33
15 | CCCCCCCCCCCCNC(=O)NC(C)(C)c1cccc(C(C)C)c1 [Compound 1715] | 10.9
16 | CC(C)c1cccc(C(C)(C)NC(=O)NCCCCCCCCCCCC(=O)O)c1 [Compound 1808] | 52.5
17 | C=C(C)c1cccc(C(C)(C)NC(=O)NC2CCCCC2)c1 [Compound 1520] | 11.4
18 | C=C(C)c1cccc(C(C)(C)NC(=O)N[C@H]2CC[C@H](O)CC2)c1 [Compound 1887, trans-1-(4-Hydroxy-cyclohexyl)-3-[1-(3-isopropenyl)-1-methyl-ethyl]-urea] | 76.7
19 | CC(C)c1cccc(C(C)(C)NC(=O)NCc2ccc(Oc3ccccc3)cc2)c1 [Compound 1955] | 10.6
20 | CC(=O)N1CCC(NC(=O)NC(C)(C)c2cccc(C(C)C)c2)CC1 [Compound 2064] | 444
21 | CC(C)c1cccc(C(C)(C)NC(=O)Nc2cccc(C(=O)O)c2)c1 [Compound 1719] | 1610
